Counter-ions that a name gives are not always drawn.

The molecule `CNCc1cc(-c2ccco2)ccc1Oc1ccc(Cl)c(Cl)c1` (as salt: HCl) (hydrate or solvate) [Example 6, [2-(3,4-Dichlorophenoxy)-5-furan-2-ylbenzyl]-methylamine] came in with a melting point of 188 to 191 °C.

In turn, `CNCc1cc(-c2cccs2)ccc1Oc1ccc(Cl)c(Cl)c1` (as salt: HCl) [Example 10, [2-(3,4-Dichlorophenoxy)-5-thiophen-2-ylbenzyl]-methylamine] gave a melting point of 207 to 209 °C.

With `CNCc1ccc(-c2ccsc2)cc1Oc1ccc(Cl)c(Cl)c1` (as salt: HCl) (hydrate or solvate) [Example 9, [2-(3,4-Dichlorophenoxy)-4-thiophen-3-ylbenzyl]-methylamine], the melting point was 181 to 184 °C.

Turning to `CNCc1ccc(-c2ccccc2)cc1Oc1ccc(Cl)c(Cl)c1` (as salt: HCl) [Example 2, [3-(3,4-Dichlorophenoxy)-biphenyl-4-ylmethyl]-methylamine], the melting point is 186 to 194 °C.

Turning to `CNCc1cc(-c2ccc(C)cc2)ccc1Oc1ccc(Cl)c(Cl)c1` (as salt: HCl) (hydrate or solvate) [Example 3, [4-(3,4-Dichlorophenoxy)-4′-methyl-biphenyl-3-ylmethyl]-methylamine], the melting point fell in the range of 208 to 210 °C.

For the molecule `CNCc1ccc(-c2ccco2)cc1Oc1ccc(Cl)c(Cl)c1` (hydrate or solvate) [Example 7, [2-(3,4-Dichlorophenoxy)-4-furan-2-ylbenzyl]-methylamine], the melting point lay within 129 to 134 °C.

Molecule `CNCc1cc(N2CCCC2=O)ccc1Oc1ccc(Cl)c(Cl)c1` (as salt: HCl) [Example 19, 1-[4-(3,4-Dichlorophenoxy)-3-(methylaminomethyl)phenyl]-pyrrolidin-2-one] returned a melting point of 166 to 170 °C.

`CNCc1cc(-c2ccsc2)ccc1Oc1ccc(Cl)c(Cl)c1` (as salt: HCl) [Example 8, [2-(3,4-Dichlorophenoxy)-5-thiophen-3-ylbenzyl]-methylamine] gave a melting point of 169 to 172 °C.

In the case of `CNCc1cc(-n2ccc(N)n2)ccc1Oc1ccc(Cl)c(Cl)c1.Cl.Cl`, the melting point lay in the range of 225 to 233 °C.

On to `CNC(C)c1cc(N2CCCC2=O)ccc1Oc1ccc(Cl)c(Cl)c1.Cl` (stereo not shown), for which the melting point lay within 195 to 200 °C.

`CNCc1cc(-c2ccncc2)ccc1Oc1ccc(Cl)c(Cl)c1` (as salt: HCl) (hydrate or solvate) [Example 14, [2-(3,4-Dichlorophenoxy)-5-pyridin-4-ylbenzyl]-methylamine] showed a melting point of 179 to 181 °C.

Regarding `CNCc1cc(-c2cccnc2)ccc1Oc1ccc(Cl)c(Cl)c1` (as salt: HCl) [Example 13, [2-(3,4-Dichlorophenoxy)-5-pyridin-3-ylbenzyl]-methylamine], the melting point is 168 to 171 °C.

For the molecule `CNCc1ccc(-c2cccs2)cc1Oc1ccc(Cl)c(Cl)c1` (as salt: HCl) [Example 11, [2-(3,4-Dichlorophenoxy)-4-thiophen-2-ylbenzyl]-methylamine], the melting point fell in the range of 180 to 183 °C.

One may read the melting point as the temperature, or range, at which the solid turns liquid.

These data come from patent publication US6596741B2, “Biaryl ether derivatives useful as monoamine reuptake inhibitors” (Pfizer Inc, priority 1999, dated 2003).
